biological target: T1, Syk (Homo sapiens, UniProt P43405); experiment: Syk HTRF assay; format: biochemical; settings: IC50 activity level, read-out: Activity Level
T1 construct: purchased Carna Biosciences
Experimental: Test compounds were prepared at a concentration of 1.5 mM in DMSO followed by 3-fold dilutions in Greiner […] polypropylene plates. A 1:4 dilution of compounds by 8 μL/well transfer from the polypropylene plates to 24 μL/well Assay Buffer in Costar 3710 384 well black plates was then performed. Kinases (13 μL/well) or Assay Buffer only (background controls; 50 mM HEPES pH 7.6, 1 mM DTT, 10 mM MgCl2, 0.01% Triton X100, 0.01% BSA and 0.1 mM EDTA) were added to Costar 3710 384-well black plates for the HTRF assays (Carna Biosciences) and compound was added from the 1:4 dilution plate. Syk start mix (87.5 μM ATP, 80 nM Substrate Peptide (American Peptide Company 332722) was added and the mixture was incubated at room temperature for 1 hour. Syk Stop Solution (120 mM EDTA in dilution buffer) was then added to the Syk HTRF assay plate and incubated at room temperature on a shaker for 2 minutes. Syk Antibody Mix (4.86 μg/mL DyLight 647 Streptavidin (Pierce 21824); 1 μg/mL Lance Eu-Anti-Phosphotyrosine (PerkinElmer AD0069)) was added to the Syk HTRF assay plate and the mixture was further incubated at room temperature for >4 h. Time resolved fluorescence was read in assay plates on a PerkinElmer EnVision. HTRF assays were performed using 320 nm excitation, 60 μs delay, 665 nm and 615 nm emission. Data was expressed by division of 665 nm by 615 nm emissions.

Row | IC50 [nM] | SMILES
1 | 250 to 500 | c1ccc(Nc2nc3cccc(Nc4ccccc4)n3n2)cc1 [Example 529, N^2,N^5-diphenyl-[1,2,4]triazolo[1,5-a]pyridine-2,5-diamine]
2 | 0.005 to 250 | NC(=O)c1nc2ccc(-c3cccc4nc(Nc5ccc(C(F)(F)F)cc5)nn34)cc2[nH]1 [Example 408, 6-(2-(4-(trifluoromethyl)phenylamino)-[1,2,4]triazolo[1,5-a]pyridin-5-yl)-1H-benzo[d]imidazole-2-carboxamide]
3 | 1000 to 10000 | c1ccc(Nc2nc3cccc(NC4CCCNC4)n3n2)cc1 (stereo in doubt) [Example 497, (R)-N^2-phenyl-N^5-(piperidin-3-yl)-[1,2,4]triazolo[1,5-a]pyridin-2,5-diamine]
4 | 1000 to 10000 | CC(C)C(=O)Nc1cccc2nc(Nc3ccccc3)nn12 [Example 526, N-(2-(phenylamino)-[1,2,4]triazolo[1,5-a]pyridin-5-yl)isobutyramide]
5 | 500 to 1000 | Cn1ncc2ccc(Nc3nc4cccc(NC5CCCNC5)n4n3)cc21 (stereo in doubt) [Example 463, (R)-N^2-(1-methyl-1H-indazol-6-yl)-N^5-(piperidin-3-yl)-[1,2,4]triazolo[1,5-a]pyridin-2,5-diamine]
6 | 0.005 to 250 | CC(O)c1nc2ccc(-c3cccc4nc(Nc5ccc(C(F)(F)F)cc5)nn34)cc2[nH]1 (centres unmarked) [Example 402, 1-(6-(2-(4-(trifluoromethyl)phenylamino)-[1,2,4]triazolo[1,5-a]pyridin-5-yl)-1H-benzo[d]imidazol-2-yl)ethanol]
7 | 0.005 to 250 | NC(=O)c1ccc(Nc2nc3cccc(NC4CCC(N)CC4)n3n2)cc1 (stereo in doubt) [Example 492, trans-4-(5-(4-aminocyclohexylamino)-[1,2,4]triazolo[1,5-a]pyridin-2-ylamino)benzamide]
8 | 0.005 to 250 | Cc1cc(Nc2nc3cccc(N[C@H]4CC[C@@H](O)CC4)n3n2)cc2c1CC(=O)N2C [Example 556]
9 | 1000 to 10000 | NCCn1cnc2cc(-c3cccc4nc(Nc5ccccc5)nn34)ccc21 [Example 490, 5-(1-(2-aminoethyl)-1H-benzo[d]imidazol-5-yl)-N-phenyl-[1,2,4]triazolo[1,5-a]pyridin-2-amine]
10 | 0.005 to 250 | OC[C@H]1CC[C@@H](Nc2cccc3nc(Nc4ccc(C(F)(F)F)cc4)nn23)CC1 [Example 410, cis-(4-(2-(4-(trifluoromethyl)phenylamino)-[1,2,4]triazolo[1,5-a]pyrridin-5-ylamino)cyclohexyl)methanol]
11 | 1000 to 10000 | c1ccc(Nc2nc3cccc(-c4ccnc(N5CCNCC5)c4)n3n2)cc1 [Example 520, N-phenyl-5-(2-(piperazin-1-yl)pyridin-4-yl)-[1,2,4]triazolo[1,5-a]pyridin-2-amine]

same assay, conditions: activity levels A-D, read-out: Activity Level (IC50 in the Syk HTRF assay)

Row | IC50 [nM] | SMILES
12 | 250 to 500 | CNC(=O)c1ccc(Nc2nc3cccc(NC4CCC(N)CC4)n3n2)cc1 (stereo in doubt) [Example 394, trans-4-(5-(4-aminocyclohexylamino)-[1,2,4]triazolo[1,5-a]pyridin-2-ylamino)-N-methylbenzamide]
13 | 500 to 1000 | O[C@@H]1CCC[C@H]1Nc1cc(-c2cccc3nc(Nc4ccc(C(F)(F)F)cc4)nn23)ccn1 [Example 246, (1R,2R)-2-(4-(2-(4-(trifluoromethyl)phenylamino)-[1,2,4]triazolo[1,5-a]pyridin-5-yl)pyridin-2-ylamino)cyclopentanol]
14 | 1000 to 10000 | COc1ccccc1Nc1nc2cccc(N[C@H]3CC[C@@H](O)CC3)n2n1 [Example 339, cis-4-(2-(2-methoxyphenylamino)-[1,2,4]triazolo[1,5-a]pyridin-5-ylamino)cyclohexanol]
15 | 500 to 1000 | CNC(=O)c1ccc(Nc2nc3cccc(N4CCC(O)C4)n3n2)cc1 (stereo in doubt) [Example 250, (R)-4-(5-(3-hydroxypyrrolidin-1-yl)-[1,2,4]triazolo[1,5-a]pyridin-2-ylamino)-N-methylbenzamide]
16 | 0.005 to 250 | CN(C)c1ccc(Nc2nc3cccc(-c4ccc5nc(CO)[nH]c5c4)n3n2)cn1 [Example 298, (6-(2-(6-(dimethylamino)pyridin-3-ylamino)-[1,2,4]triazolo[1,5-a]pyridin-5-yl)-1H-benzo[d]imidazol-2-yl)methanol]
17 | 1000 to 10000 | CC1CN(Cc2cccc3nc(Nc4ccc(C(F)(F)F)cc4)nn23)CC(=O)N1 (centres unmarked) [Example 282, 6-methyl-4-((2-(4-(trifluoromethyl)phenylamino)-[1,2,4]triazolo[1,5-a]pyridin-5-yl)methyl)piperazin-2-one]
18 | 500 to 1000 | O[C@H]1CCC[C@H](Nc2cccc3nc(Nc4ccc(C(F)(F)F)cc4)nn23)C1 (single isomer, unassigned; enantiomer 2) [Example 226, trans-3-(2-(4-(trifluoromethyl)(phenylamino)-[1,2,4]triazolo[1,5-a]pyridin-5-ylamino)cyclohexanol (enantiomer 2)]
19 | 0.005 to 250 | OC1CCN(c2ccc(Nc3nc4cccc(N[C@H]5CC[C@@H](O)CC5)n4n3)cn2)CC1 [Example 294, cis-1-(5-(5-(4-hydroxycyclohexylamino)-[1,2,4]triazolo[1,5-a]pyridin-2-ylamino)pyridin-2-yl)piperidin-4-ol]
20 | 0.005 to 250 | Cc1n[nH]c2cc(Nc3nc4cccc(C[C@H]5CC[C@@H](O)CC5)n4n3)ccc12 [Example 239, cis-4-((2-(3-methyl-1H-indazol-6-ylamino)-[1,2,4]triazolo[1,5-a]pyridin-5-yl)methyl)cyclohexanol]
21 | 1000 to 10000 | FC(F)(F)c1ccc(Nc2nc3cccc(OC[C@@H]4CCCN4)n3n2)cc1 [Example 303, (S)-5-(pyrrolidin-2-ylmethoxy)-N-(4-(trifluoromethyl)phenyl)-[1,2,4]triazolo[1,5-a]pyridin-2-amine]
22 | 250 to 500 | COc1ccc(Nc2nc3cccc(-c4ccc5nc(CO)[nH]c5c4)n3n2)cn1 [Example 280, (6-(2-(6-methoxypyridin-3-ylamino)-[1,2,4]triazolo[1,5-a]pyridin-5-yl)-1H-benzo[d]imidazol-2-yl)methanol]
23 | 1000 to 10000 | CNC(=O)c1ccc(Nc2nc3cccc(N[C@H]4CC[C@H](O)CC4)n3n2)cc1 (stereo in doubt) [Example 387, trans-4-(5-(4-hydroxycyclohexylamino)-[1,2,4]triazolo[1,5-a]pyridin-2-ylamino)-N-methylbenzamide]
24 | 500 to 1000 | O[C@H]1CCC[C@H](Nc2cccc3nc(Nc4ccc(C(F)(F)F)cc4)nn23)C1 (racemic) [Example 373, (±)trans-3-(2-(4-(trifluoromethyl)phenylamino)-[1,2,4]triazolo[1,5-a]pyridin-5-ylamino)cyclohexanol]

same assay, conditions: read-out: Activity Level (Syk HTRF assay IC50)

Row | SMILES | IC50 [nM]
25 | Cc1n[nH]c2cc(Nc3nc4cccc(NC[C@@H]5CCC(O)C5)n4n3)ccc12 (stereo in doubt) [Example 179, (1R,3R)-3-((2-(3-methyl-1H-indazol-6-ylamino)-[1,2,4]triazolo[1,5-a]pyridin-5-ylamino)methyl)cyclopentanol] | 0.005 to 250
26 | O=C1CN(Cc2cccc3nc(Nc4ccc5c(C(F)(F)F)n[nH]c5c4)nn23)CCN1 [Example 155, 4-((2-(3-(trifluoromethyl)-1H-indazol-6-ylamino)-[1,2,4]triazolo[1,5-a]pyridin-5-yl)methyl)piperazin-2-one] | 0.005 to 250
27 | COCc1nc2ccc(Nc3nc4cccc(NC5CCOCC5)n4n3)cc2[nH]1 [Example 142, N^2-(2-(methoxymethyl)-1H-benzo[d]imidazol-6-yl)-N^5-(tetrahydro-2H-pyran-4-yl)-[1,2,4]triazolo[1,5-a]pyridine-2,5-diamine] | 250 to 500
28 | Cn1ncc2ccc(Nc3nc4cccc(NC5CCOCC5)n4n3)cc21 [Example 161, N^2-(1-methyl-1H-indazol-6-yl)-N^5-(tetrahydro-2H-pyran-4-yl)-[1,2,4]triazolo[1,5-a]pyridin-2,5-diamine] | 0.005 to 250
29 | Cc1n[nH]c2cc(Nc3nc4cccc(NC[C@H]5CCC(O)C5)n4n3)ccc12 (stereo in doubt) [Example 180, (1R,3S)-3-((2-(3-methyl-1H-indazol-6-ylamino)-[1,2,4]triazolo[1,5-a]pyridin-5-ylamino)methyl)cyclopentanol] | 0.005 to 250

Further lines, results first:

Row | IC50 [nM] | SMILES
30 | 0.005 to 250 | Cn1nc(N)c2ccc(Nc3nc4cccc(-c5ccccc5)n4n3)cc21 [compound 35]
31 | 0.005 to 250 | c1ccc(-c2cccc3nc(Nc4ccc5ncccc5c4)nn23)cc1 [compound 59, N-(5-phenyl-[1,2,4]triazolo[1,5-a]pyridin-2-yl)quinolin-6-amine]
32 | 250 to 500 | Nc1noc2cc(Nc3nc4cccc(-c5ccccc5)n4n3)ccc12 [compound 44]
33 | 0.005 to 250 | c1ccc(-c2cccc3nc(Nc4ccc5cn[nH]c5c4)nn23)cc1 [compound 68]
34 | 250 to 500 | c1ccc(Nc2nc3cccc(-c4cccc(-c5ncn[nH]5)c4)n3n2)cc1 [compound 62, 5-(3-(1H-1,2,4-triazol-5-yl)phenyl)-N-phenyl-[1,2,4]triazolo[1,5-a]pyridin-2-amine]
35 | 0.005 to 250 | Cc1cc(Nc2nc3cccc(N[C@H]4CC[C@@H](O)CC4)n3n2)cc2c1C(C)(C)C(=O)N2 [compound 109, cis-6-(5-(4-hydroxycyclohexylamino)-[1,2,4]triazolo[1,5-a]pyridin-2-ylamino)-3,3,4-trimethylindolin-2-one]

Source: patent US8299056B2 (Signal Pharmaceuticals, LLC, priority 2008, dated 2012)
